Reference: the supplement of paper PMC8671470

Tests used:
Conditions in all cases: 72 h
BV-173 [1] = system: BV-173
How it was run: (§1)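 Each of fifteen myeloid leukaemia cell lines was seeded in RPMI 1640 at a density titrated to its linear growth range. The cells were incubated for 72 h at 37 °C and 5% CO2 with compounds at five tenfold doses from 1 to 10,000 nM, in duplicate. After ATP luminescence was normalised to vehicle and to a positive control at 10 µM, four-parameter log-logistic curves were fitted. These curves gave the IC50.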

HEL [2] = system: HEL
How it was run: as §1

HL-60 [3] = system: HL-60
How it was run: as §1

K-562 [4] = system: K-562
How it was run: as §1

KCL-22 [5] = system: KCL-22
How it was run: as §1

KG-1 [6] = system: KG-1
How it was run: as §1

KU-812 [7] = system: KU-812
How it was run: as §1

LAMA-84 [8] = system: LAMA-84
How it was run: as §1

ML-2 [9] = system: ML-2
How it was run: as §1

MOLM-13 [10] = system: MOLM-13
How it was run: as §1

MV4-11 [11] = system: MV4-11
How it was run: as §1

Mono-Mac-6 [12] = system: Mono-Mac-6
How it was run: as §1

NOMO-1 [13] = system: NOMO-1
How it was run: as §1

SHI-1 [14] = system: SHI-1
How it was run: as §1

THP-1 [15] = system: THP-1
How it was run: as §1

BV-173 [16] = assay: cell viability (% survival relative to DMSO control, bortezomib = 0%); higher = less cytotoxic
How it was run: (§2)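 Fifteen myeloid leukaemia cell lines (10 AML, 5 CML) were seeded at a density titrated to the linear growth range. They went into 384-well plates with compounds pre-printed at 1, 10, 100, 1000 or 10000 nM in duplicate. After 72 h at 37 °C with 5% CO2, viability was read by CellTiter-Glo luminescence. Values are percent survival, with vehicle set to 100% and a 10 µM positive control to 0%, averaged over the duplicates.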

HEL [17] = assay: as above
How it was run: as §2

HL-60 [18] = assay: as above
How it was run: as §2

K-562 [19] = assay: as above
How it was run: as §2

KCL-22 [20] = assay: as above
How it was run: as §2

KG-1 [21] = assay: as above
How it was run: as §2

KU-812 [22] = assay: as above
How it was run: as §2

LAMA-84 [23] = assay: as above
How it was run: as §2

ML-2 [24] = assay: as above
How it was run: as §2

MOLM-13 [25] = assay: as above
How it was run: as §2

MV4-11 [26] = assay: as above
How it was run: as §2

Mono-Mac-6 [27] = assay: as above
How it was run: as §2

NOMO-1 [28] = assay: as above
How it was run: as §2

SHI-1 [29] = assay: as above
How it was run: as §2

THP-1 [30] = assay: as above
How it was run: as §2

CN1CCN(CCCN2c3ccccc3Sc3ccc(C(F)(F)F)cc32)CC1 [Trifluoperazine]
Conditions	IC50 (cell viability) [µM]
BV-173 [1]	> 10
HEL [2]	> 10
HL-60 [3]	5.18
K-562 [4]	2.91
KCL-22 [5]	3.49
KG-1 [6]	3.54
KU-812 [7]	> 10
LAMA-84 [8]	> 10
ML-2 [9]	9.55
MOLM-13 [10]	> 10
MV4-11 [11]	9.52
Mono-Mac-6 [12]	> 10
NOMO-1 [13]	> 10
SHI-1 [14]	> 10
THP-1 [15]	> 10

cell viability [%]
Conditions	1 nM	10 nM	100 nM	1000 nM	10000 nM
BV-173 [16]	97.3	94.8	103	97.6	55.3
HEL [17]	110	82.7	99.9	86.5	65.1
HL-60 [18]	100	101	88.6	95.3	20.2
K-562 [19]	113	89.5	85.1	92	0.986
KCL-22 [20]	108	109	115	78.1	42.1
KG-1 [21]	106	103	100	79.8	42.8
KU-812 [22]	101	94	97.8	86.3	65.6
LAMA-84 [23]	101	100	98.8	83	76.5
ML-2 [24]	102	102	103	95.9	48.4
MOLM-13 [25]	105	85.4	101	93.2	57.7
MV4-11 [26]	99.5	79.6	93.8	89.9	50.3
Mono-Mac-6 [27]	108	112	90.4	83.2	66.6
NOMO-1 [28]	104	108	101	88.3	81
SHI-1 [29]	113	96.2	103	92.1	64.4
THP-1 [30]	97.9	102	100	87.6	72.4

CCCc1nc(C)c2c(=O)nc(-c3cc(S(=O)(=O)N4CCN(CC)CC4)ccc3OCC)[nH]n12 [Vardenafil]
Conditions	IC50 (cell viability) [µM]
BV-173 [1]	> 10
HEL [2]	> 10
HL-60 [3]	> 10
K-562 [4]	> 10
KCL-22 [5]	> 10
KG-1 [6]	> 10
KU-812 [7]	> 10
LAMA-84 [8]	> 10
ML-2 [9]	> 10
MOLM-13 [10]	> 10
MV4-11 [11]	> 10
Mono-Mac-6 [12]	> 10
NOMO-1 [13]	> 10
SHI-1 [14]	> 10
THP-1 [15]	> 10

cell viability [%]
Conditions	1 nM	10 nM	100 nM	1000 nM	10000 nM
BV-173 [16]	98.3	80.3	101	108	82.8
HEL [17]	91.9	111	94.4	102	93.7
HL-60 [18]	107	115	89.2	112	102
K-562 [19]	109	107	93.8	90.8	92.6
KCL-22 [20]	105	110	98.3	95.8	94.6
KG-1 [21]	95.4	95.9	92.8	110	107
KU-812 [22]	95.4	106	92	102	102
LAMA-84 [23]	92.6	95.2	101	92.2	97.8
ML-2 [24]	98.8	96.3	88	97.4	110
MOLM-13 [25]	107	123	71.2	91.2	94.5
MV4-11 [26]	97.9	87.5	85.2	97.7	93.3
Mono-Mac-6 [27]	102	83	106	95.1	102
NOMO-1 [28]	94.4	84.3	96.1	101	93.1
SHI-1 [29]	102	115	89.8	99.7	101
THP-1 [30]	93.8	85	107	108	96.5

CCc1c(C(=O)C(N)=O)c2c(OCC(=O)O)cccc2n1Cc1ccccc1 [Varespladib]
Conditions	IC50 (cell viability) [µM]
BV-173 [1]	> 10
HEL [2]	> 10
HL-60 [3]	> 10
K-562 [4]	> 10
KCL-22 [5]	> 10
KG-1 [6]	> 10
KU-812 [7]	> 10
LAMA-84 [8]	> 10
ML-2 [9]	> 10
MOLM-13 [10]	> 10
MV4-11 [11]	> 10
Mono-Mac-6 [12]	> 10
NOMO-1 [13]	> 10
SHI-1 [14]	> 10
THP-1 [15]	> 10

cell viability [%]
Conditions	1 nM	10 nM	100 nM	1000 nM	10000 nM
BV-173 [16]	90.6	104	85.4	99.3	88.7
HEL [17]	94.8	111	99.2	109	87.6
HL-60 [18]	98.8	101	92.8	96.2	93.2
K-562 [19]	98.5	97.5	110	92.4	99.9
KCL-22 [20]	91.2	107	105	102	96.5
KG-1 [21]	99.5	96.9	99.4	95.9	94
KU-812 [22]	96.1	97.7	98.5	97.6	86.4
LAMA-84 [23]	95.6	100	103	101	81.3
ML-2 [24]	105	105	109	104	89.7
MOLM-13 [25]	80.7	95.3	85.8	101	118
MV4-11 [26]	88.4	109	101	88.3	98.5
Mono-Mac-6 [27]	99.1	101	93.7	100	89
NOMO-1 [28]	102	91.6	101	115	95.2
SHI-1 [29]	106	99	106	92.9	93.4
THP-1 [30]	103	105	100	97.4	96.9

N#Cc1ccc(N(Cc2ccc(Br)cc2)n2cnnc2)cc1 [YM511]
Conditions	IC50 (cell viability) [µM]
BV-173 [1]	> 10
HEL [2]	> 10
HL-60 [3]	> 10
K-562 [4]	> 10
KCL-22 [5]	> 10
KG-1 [6]	> 10
KU-812 [7]	> 10
LAMA-84 [8]	> 10
ML-2 [9]	> 10
MOLM-13 [10]	> 10
MV4-11 [11]	> 10
Mono-Mac-6 [12]	> 10
NOMO-1 [13]	> 10
SHI-1 [14]	> 10
THP-1 [15]	> 10

cell viability [%]
Conditions	1 nM	10 nM	100 nM	1000 nM	10000 nM
BV-173 [16]	92	95.3	101	107	100
HEL [17]	113	104	97.7	118	104
HL-60 [18]	104	76.2	102	117	101
K-562 [19]	107	104	97	115	99.3
KCL-22 [20]	111	97.9	106	102	99.6
KG-1 [21]	99.3	105	90.2	118	92.1
KU-812 [22]	95.9	99.6	89.3	102	92.7
LAMA-84 [23]	106	100	93.4	101	103
ML-2 [24]	105	108	106	107	98.5
MOLM-13 [25]	131	99.5	91.6	105	94.5
MV4-11 [26]	98.9	93.6	115	106	98.9
Mono-Mac-6 [27]	110	102	97	106	93.9
NOMO-1 [28]	103	104	98.4	104	96.2
SHI-1 [29]	117	103	95.7	103	102
THP-1 [30]	99.3	103	93.4	105	91.9

N#C/C(=C\c1ccc(O)cc1)C(=O)O [alpha-cyano-4-hydroxycinnamic acid]
Conditions	IC50 (cell viability) [µM]
BV-173 [1]	> 10
HEL [2]	> 10
HL-60 [3]	> 10
K-562 [4]	> 10
KCL-22 [5]	> 10
KG-1 [6]	> 10
KU-812 [7]	> 10
LAMA-84 [8]	> 10
ML-2 [9]	> 10
MOLM-13 [10]	> 10
MV4-11 [11]	> 10
Mono-Mac-6 [12]	> 10
NOMO-1 [13]	> 10
SHI-1 [14]	> 10
THP-1 [15]	> 10

cell viability [%]
Conditions	1 nM	10 nM	100 nM	1000 nM	10000 nM
BV-173 [16]	96.5	103	84.2	80.1	113
HEL [17]	99.3	114	118	113	116
HL-60 [18]	79.6	78.6	113	99.5	83.1
K-562 [19]	101	72.2	95.4	103	91
KCL-22 [20]	98.3	97.6	103	94	92
KG-1 [21]	101	96.7	103	99.2	103
KU-812 [22]	97.9	114	89.3	87.4	105
LAMA-84 [23]	96.5	107	96.7	101	101
ML-2 [24]	92.4	101	96.2	95.8	94.5
MOLM-13 [25]	97.7	99.7	104	99.1	85.2
MV4-11 [26]	100	95.3	95.7	100	101
Mono-Mac-6 [27]	98.2	101	103	103	104
NOMO-1 [28]	99.5	96.2	106	104	97.3
SHI-1 [29]	99.9	97	95.1	97.3	86.6
THP-1 [30]	95.5	98.3	98.3	87.5	93.2
